Test results: ChEMBL document CHEMBL1201862, “PubChem BioAssay data set” (2004)
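Assay format: 96-well plates, 48-hour exposure. GI50 is the concentration that inhibits growth by half.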 Calls of active or inactive are those of the source. No stated cut-off is given here; in the data, active = GI50 up to about 1.1 µM and inactive = higher.

What was measured:
Test in all cases: DTP human tumour cell line panel, 48 h
EKVX = tested on: EKVX
HL-60 = tested on: HL-60
MOLT-4 = tested on: MOLT-4
SW-620 = tested on: SW-620
NCI-H522 = tested on: NCI-H522
CCRF-CEM = tested on: CCRF-CEM
KM12 = tested on: KM12
HOP-62 = tested on: HOP-62
U-251 = tested on: U-251
CAKI-1 = tested on: CAKI-1
HT-29 = tested on: HT-29
UO-31 = tested on: UO-31
HOP-92 = tested on: HOP-92
HCT-116 = tested on: HCT-116
786-0 = tested on: 786-0
OVCAR-3 = tested on: OVCAR-3
TK-10 = tested on: TK-10
OVCAR-8 = tested on: OVCAR-8
HCC 2998 = tested on: HCC 2998

Measured: GI50

COc1cc(/C=C/c2cccnc2)cc(OC)c1OC
inactive: EKVX 66.1 µM | HL-60 98.2 µM | MOLT-4 > 100 µM | SW-620 > 100 µM | NCI-H522 53.5 µM | CCRF-CEM > 100 µM | KM12 > 100 µM | HOP-62 70.6 µM | U-251 > 100 µM | CAKI-1 > 100 µM | HT-29 > 100 µM | UO-31 36.5 µM | HOP-92 31.8 µM | HCT-116 > 100 µM | 786-0 > 100 µM | OVCAR-3 > 100 µM | TK-10 58.6 µM | OVCAR-8 > 100 µM

CCOC(=O)C1C(=O)C(C(=O)OCC)C(c2ccccc2)N(C)C1c1ccccc1 (stereo unspecified)
inactive: EKVX > 100 µM | HL-60 38.7 µM | MOLT-4 49.5 µM | SW-620 > 100 µM | NCI-H522 49.9 µM | CCRF-CEM > 100 µM | KM12 > 100 µM | HOP-62 > 100 µM | U-251 95.9 µM | CAKI-1 > 100 µM | HT-29 > 100 µM | UO-31 > 100 µM | HOP-92 > 100 µM | HCT-116 58.2 µM | 786-0 > 100 µM | OVCAR-3 > 100 µM | TK-10 > 100 µM | OVCAR-8 > 100 µM

Clc1cccc(C2SCc3nc4ccccc4n32)c1Cl (stereo unspecified)
inactive: EKVX 16.2 µM | HL-60 5.18 µM | MOLT-4 11.1 µM | SW-620 17.1 µM | NCI-H522 16.6 µM | CCRF-CEM 19.1 µM | HOP-62 17.4 µM | U-251 17.5 µM | CAKI-1 16.3 µM | HT-29 13.6 µM | UO-31 13 µM | HOP-92 15.2 µM | HCT-116 18.6 µM | 786-0 17.7 µM | OVCAR-3 19 µM | TK-10 15.6 µM | OVCAR-8 19 µM

CCCCCCC(C)CCCCCCCCCCC(=O)O (stereo unspecified)
inactive: EKVX > 100 µM | HL-60 > 100 µM | MOLT-4 > 100 µM | SW-620 > 100 µM | NCI-H522 > 100 µM | CCRF-CEM > 100 µM | KM12 64.7 µM | HOP-62 > 100 µM | U-251 > 100 µM | CAKI-1 > 100 µM | HT-29 > 100 µM | UO-31 > 100 µM | HOP-92 > 100 µM | HCT-116 93.5 µM | 786-0 > 100 µM | OVCAR-3 > 100 µM | TK-10 > 100 µM | OVCAR-8 > 100 µM

O=C1CCNC(=O)NC1
inactive: EKVX > 100 µM | HL-60 > 100 µM | MOLT-4 23.1 µM | SW-620 > 100 µM | NCI-H522 > 100 µM | CCRF-CEM > 100 µM | KM12 > 100 µM | HOP-62 > 100 µM | U-251 > 100 µM | CAKI-1 > 100 µM | HT-29 > 100 µM | UO-31 > 100 µM | HOP-92 > 100 µM | HCT-116 > 100 µM | 786-0 > 100 µM | OVCAR-3 > 100 µM | TK-10 > 100 µM | OVCAR-8 > 100 µM

COC1(OC)CC2OC1C1N=NN(C(=O)OC(C)(C)C)C21 (stereo unspecified)
inactive: HL-60 24.3 µM | MOLT-4 35.2 µM | SW-620 57.5 µM | CCRF-CEM 21.1 µM | KM12 > 100 µM | HOP-62 > 100 µM | U-251 > 100 µM | CAKI-1 > 100 µM | HT-29 > 100 µM | UO-31 > 100 µM | HOP-92 > 100 µM | HCC 2998 > 100 µM | 786-0 > 100 µM | OVCAR-3 49.3 µM

Clc1ccc(C2N3CCCCC3[C@@H]3c4[nH]c5ccccc5c4CCN23)cc1 (stereo partly specified)
inactive: EKVX 81.7 µM | HL-60 24.9 µM | MOLT-4 64.7 µM | SW-620 44.9 µM | CCRF-CEM 24.9 µM | HOP-62 > 100 µM | U-251 57.9 µM | CAKI-1 > 100 µM | HT-29 22.5 µM | UO-31 49.7 µM | HOP-92 > 100 µM | HCC 2998 34.9 µM | HCT-116 30.2 µM | 786-0 > 100 µM | OVCAR-3 50.5 µM | TK-10 > 100 µM | OVCAR-8 > 100 µM

CCCCC(/C=N/NC(=N)N)CC.Cc1cc(O)c(C(C)C)cc1S(=O)(=O)O
inactive: EKVX 30.8 µM | HL-60 8.85 µM | MOLT-4 36.1 µM | SW-620 27 µM | NCI-H522 > 100 µM | CCRF-CEM 56.2 µM | KM12 52.4 µM | HOP-62 39.7 µM | U-251 33.4 µM | UO-31 59.8 µM | HCC 2998 17.5 µM | HCT-116 43.3 µM | 786-0 > 100 µM | OVCAR-3 37.2 µM | TK-10 61.7 µM | OVCAR-8 > 100 µM
